Assay results reported in paper PMC11120408 (Foods, 2024).

Key:
Format in all cases: biochemical, bovine
[1] = molecular target: T1, BSA–fructose (Fru) system (Bos taurus, UniProt P02769); experiment: Total carbonyl and thiol group content of glycated BSA; settings: 0.200 mg mL^−1
Description: A reported method was adopted and a slight modification was made to determine the protein carbonyl group content (PCO). Briefly, 100 μL of native BSA solution or sample solution acquired in Section 2.4.1 was incubated with DNPH solution (400 μL, 10 mM, dissolved in 2.0 M HCl) for 1 h at room temperature, with vortexing every 10 min. The sample solution without DNPH was regarded as the blank group. Then, 1000 μL of trichloroacetic acid (TCA) solution (20% (w/v)) was added, and the resulting mixture was kept at 277 K for 10 min, followed by centrifugation (10,000 rpm, 10 min, 277 K). The residue was extracted with ethanol/ethyl acetate (1:1, v/v) three times, and subsequently suspended and mixed thoroughly in 1000 μL of guanidine hydrochloride (6.0 M, pH 6.6), followed by incubating at 310 K for 15 min. The UV absorbance was recorded at 370 nm on an Infinite® M200 PRO plate reader (Tecan, Männedorf, Switzerland). The total protein carbonyl group content was calculated using the following equation:(4) PCO(nmol/mg protein)=Asample−AblankVreaction/ε1dVsampleCpro×1000 where Asample and Ablank are the absorbances of a tested sample with or without DNPH, respectively. ε1 represents the absorption coefficient of 22,000 M^−1cm^−1, and d is the cuvette length (0.5 cm). […]
The content of the free SH group was assessed using Ellman’s method with slight changes. […]

[2] = molecular target: T1, BSA–fructose (Fru) system; experiment: Surface hydrophobicity of glycated BSA (BPB, ANS)
[3] = molecular target: T1, BSA–fructose (Fru) system; experiment: Structural analysis of glycated BSA (CD, ThT cross-β structure)
Description: The changes in the secondary structures of the proteins were determined using the CD spectroscopy method on a New MOS-450 spectropolarimeter (Biologic, Seyssinet-Pariset, France). The spectra were collected over the far-UV range of 200–260 nm using a quartz cell (with an inner diameter of 1 mm) under an atmosphere of nitrogen at room temperature. Each spectrum was the average of at least three consecutive scans at a scan speed of 100 nm min^−1 with a bandwidth of 1 nm, and it was corrected for the buffer signal. The proportion of different secondary structures was calculated using the online CONTIN program (http://dichroweb.cryst.bbk.ac.uk/html/home.shtml, accessed on 4 April 2023).
The secondary structure contents of BSA before and after glycosylation were determined using CD measurement referring to the experimental procedure in Section 2.3.2.
As a popular fluorescent probe for protein aggregation, thioflavin T (ThT) was used for the detection of the amyloid β-structure of glycated BSA [29, 30]. The samples were treated with ThT (a final concentration of 0.016 mg mL^−1) at room temperature for 1 h in the dark. The ThT fluorescence intensity (excitation: 435 nm; emission: 485 nm) of the sample was recorded on a spectrofluorometer.

[4] = molecular target: T1, BSA–fructose (Fru) system; experiment: Anti-glycation: glycation products in BSA–Fru system; settings: 0.200 mg mL^−1; end stage
Description: Considering that Monascus pigments (MPs) are usually applied in the form of a mixture, the extract of Monascus-fermented rice (a high content of six known Monascus pigments, Figure S2) was selected to evaluate the anti-glycation capacity of MPs in a reaction in vitro using BSA as a model protein glycation by Fru. Briefly, BSA and Fru were dissolved in PBS solution of pH 7.4, and their final concentrations were 10.0 mg mL^−1 and 0.5 M, respectively. Then, a series of MPs were added into the above system with final concentrations of 0.005, 0.025, 0.050, 0.100, 0.150, and 0.200 mg mL^−1. After filtered through a sterile 0.22 μm membrane, the reaction mixture was incubated at 323 K for 24 h. The glycosylation products, namely fructosamine (in the early stage), α-dicarbonyl compounds (in the middle stage), and fluorescent AGEs (in the end stage), were detected according to our previous report. Here, AG was a positive control.

T1 sequence (P02769 25-607): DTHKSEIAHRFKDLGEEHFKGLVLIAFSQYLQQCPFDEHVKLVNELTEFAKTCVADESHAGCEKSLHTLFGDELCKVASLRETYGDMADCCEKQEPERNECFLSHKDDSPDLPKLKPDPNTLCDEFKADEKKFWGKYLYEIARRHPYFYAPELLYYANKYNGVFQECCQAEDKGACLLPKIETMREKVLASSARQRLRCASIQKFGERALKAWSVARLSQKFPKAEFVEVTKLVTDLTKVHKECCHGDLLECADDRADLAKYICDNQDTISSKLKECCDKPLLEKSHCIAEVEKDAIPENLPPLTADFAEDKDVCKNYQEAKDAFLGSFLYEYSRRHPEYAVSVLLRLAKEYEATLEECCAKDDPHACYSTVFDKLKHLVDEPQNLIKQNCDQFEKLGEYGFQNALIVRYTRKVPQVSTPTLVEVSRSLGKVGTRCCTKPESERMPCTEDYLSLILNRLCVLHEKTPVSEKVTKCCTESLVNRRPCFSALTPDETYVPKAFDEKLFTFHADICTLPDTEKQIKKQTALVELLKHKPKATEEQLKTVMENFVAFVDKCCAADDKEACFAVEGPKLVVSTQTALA

N=C(N)NN [AG, aminoguanidine]
free SH group content of glycated BSA after treatment ([1]; glycated BSA 2.3, native BSA 3.6): 2.7 µmol/g | carbonyl group content of glycated BSA after treatment ([1]; glycated BSA 35.6, native BSA 2.5): 15.7 nmol/mg | change of ANS fluorescence intensity of glycated BSA ([2]; ANS binding): increased slightly | change of BPB content bound to glycated BSA (surface hydrophobicity) ([2]; BPB binding): increased | inhibition rate against generation of cross-β structure (ThT) ([3]; 0.005 mg mL^−1): 27.6% | inhibition rate against generation of cross-β structure (ThT) ([3]; 0.200 mg mL^−1): 41.4% | α-helical structure content of treated glycated BSA (CD) ([3]; glycated BSA 47.8%, native BSA 67.6%): 58.3% | inhibition rate of fluorescent AGE formation [4]: 75.7%
